Tests used:
[1] = target: T1, SlGAME36 (Solanum lycopersicum, UniProt A0A3Q7HQH1); test: LC-MS steady-state kinetics; assay type: biochemical; settings: pH 7.5, 30 °C
T1 construct: gene LOC101247356; pET28/pET28b, E. coli BL21 (DE3), Ni-NTA purified His-tagged protein
Excerpt: (§1) LC-MS steady-state kinetics on SlGAME36 | higher catalytic efficiency with hydroxytomatine (native substrate from tomato | hydroxysolamargine (SGA substrate from eggplant | preferred specificity toward acetyl CoA over butyryl CoA

[2] = system: C[C@@H]1CNC2(O[C@H]3C[C@H]4[C@@H]5CC[C@H]6C[C@@H](O[C@@H]7O[C@H](CO)[C@H](O[C@@H]8O[C@H](CO)[C@@H](O)[C@H](O[C@@H]9OC[C@@H](O)[C@H](O)[C@H]9O)[C@H]8O[C@@H]8O[C@H](CO)[C@@H](O)[C@H](O)[C@H]8O)[C@H](O)[C@H]7O)CC[C@]6(C)[C@H]5CC[C@]4(C)[C@H]3[C@@H]2C)C(O)C1; test: LC-MS steady-state kinetics; assay type: biochemical, Solanum lycopersicum; settings: 500 µM acetyl CoA, pH 7.5, 30 °C
Excerpt: as §1

[3] = target: T2, SlGAME40 (Solanum lycopersicum, UniProt P10967); test: LC-MS product detection, sequential one-tube assay; assay type: biochemical; settings: acetoxytomatine formed in situ by GAME31 and GAME36; α-ketoglutarate, ascorbate, Fe2+; pH 7.5, 30 °C
T2 construct: gene ACO3; purified recombinant from E. coli

Compound: CCCC(=O)SCCNC(=O)CCNC(=O)[C@H](O)C(C)(C)COP(=O)(O)OP(=O)(O)OC[C@H]1O[C@@H](n2cnc3c(N)ncnc32)[C@H](O)[C@@H]1OP(=O)(O)O [butyryl CoA]
- Km ([1]; 100 µM hydroxytomatine): 60.4 µM

Compound: hydroxysolamargine
- Km ([1]; 500 µM acetyl CoA): 7.89 µM

Compound: CC(=O)SCCNC(=O)CCNC(=O)[C@H](O)C(C)(C)COP(=O)(O)OP(=O)(O)OC[C@H]1O[C@@H](n2cnc3c(N)ncnc32)[C@H](O)[C@@H]1OP(=O)(O)O [acetyl CoA]
- Km ([1]; 100 µM hydroxytomatine): 24.2 µM

Compound: SlGAME36 (Solanum lycopersicum)
- Km [2]: 14.43 µM
- kcat [2]: 60.25 s⁻¹

Compound: CC(=O)OC1C[C@H](C)CNC12O[C@H]1C[C@H]3[C@@H]4CC[C@H]5C[C@@H](O[C@@H]6O[C@H](CO)[C@H](O[C@@H]7O[C@H](CO)[C@@H](O)[C@H](O[C@@H]8OC[C@@H](O)[C@H](O)[C@H]8O)[C@H]7O[C@@H]7O[C@H](CO)[C@@H](O)[C@H](O)[C@H]7O)[C@H](O)[C@H]6O)CC[C@]5(C)[C@H]4CC[C@]3(C)[C@H]1[C@@H]2C (stereo partly drawn) [acetoxytomatine]
- LC-MS product detection, sequential one-tube assay [3]: Sequential assays produced explicitly the expected pathway intermediates

Reference: PMC10374582, “A BAHD-type acyltransferase concludes the biosynthetic pathway of non-bitter glycoalkaloids in ripe tomato fruit” (Nature Communications, 2023)
